Measured values from patent publication US20230203485A1, “METHODS FOR MODULATING MHC-I EXPRESSION AND IMMUNOTHERAPY USES THEREOF” (Dana-Farber Cancer Institute, Inc., priority 2020, published 2023).

Experiments:
Type in all cases: cell-based, human
[1] = tested on: HLA-DR; assay: IFN-γ treatment, HLA-DR by flow cytometry; conditions: MCC-301 cell line
Method: Cells were dissociated with Versene and incubated with 5 μL Human TruStain FcX (Fc Receptor Blocking Solution; Biolegend #422302) per million cells in 100 μL at room temperature for 10 min. Fluorophore-conjugated antibodies or respective isotype controls were added and incubated for another 30 min at 4° C. Cells were then washed once with PBS and resuspended in PBS or 4% paraformaldehyde and analyzed on an LSR Fortessa cytometer. For HLA-I and HLA-II detection, the following antibodies were used: HLA-ABC (W6/32 clone) conjugated to PE (BioLegend #311406), APC (BioLegend #311410), or AF647 (Santa Cruz Biotechnology #sc32235 AF647), and HLA-DR-FITC (BioLegend #307604).

[2] = tested on: HLA-DR expression on MCC cell lines; assay: Flow cytometry assessment of HLA-DR expression in MCC lines at baseline and after IFN-γ; conditions: MCC-301 line
Method: FIG. 1N is a graph showing flow cytometry assessment of HLA-DR expression in all 11 MCC lines, both at baseline (light pink) and after IFN-γ treatment (red).
Cells were dissociated with Versene and incubated with 5 μL Human TruStain FcX (Fc receptor blocking solution; Biolegend, Dedham, Mass.) per million cells in […] at room temperature for 10 min. Fluorochrome-conjugated antibodies or respective isotype controls were immediately added and incubated for another 30 min at 4° C. Cells were then washed once with PBS and resuspended in PBS containing 4% paraformaldehyde and analyzed on LSR Fortessa cytometers. Additional steps were described for individual experiments as below. For upregulation of HLA Class I experiment, 5×10^5 MCC cells were treated with increasing doses of IFNα2b, IFN3, IFNγ for 24 hours, or MEK inhibitors and DMSO for 72 hours before staining with W6/32 and Live/Dead as above.

[3] = tested on: class I pathway and IFN-γ pathway proteins (STAT1/p-STAT1) in MCC lines; assay: Whole proteome analysis (TMT LC-MS/MS) of MCC lines with and without IFNγ; conditions: MCC lines non-IFN-responsive by flow cytometry
Method: FIG. 2D is a proteomics heatmap depicting the relative expression of key IFN-γ pathway components in 4 of the MCC lines, both at baseline and after IFN-γ treatment.
FIG. 2E comprises graphs summarizing a targeted analysis of normalized STAT1 peptide counts (left) and STAT-Y701y phosphosite counts (right) between untreated and IFN-γ-treated cell lines.
Protein expression of MCC cell lines was assessed as described previously (Mertins et al. (2018) Nature Protocols 13 (7): 1632-61. Briefly, cell pellets of MCC cell lines with and without IFNγ treatment were lysed in 8M Urea and digested to peptides using LysC and Trypsin (Promega). 400 μg peptides were labeled with TMT10 reagents (Thermo Fisher, 126-MCC290, 127N-MCC350_IFN, 127C MCC275_IFN, 128N MCC275, 128C MCC350, 129N_MCC301_IFN, 129C-MCC277, 130N-MCC290_IFNy, 130C MCC277 IFN, 131 MCC301) and then pooled for subsequent fractionation and analysis. Pooled peptides were separated into 24 fractions using offline high pH reversed phase fractionation. 1 μg per fraction was loaded onto an analytical column (20-30 cm, 1.9 μm C18 Reprosil beads (Dr. Maisch HPLC GmbH), packed in-house PicoFrit 75 μM inner diameter, 10 μM emitter (New Objective)). […] During data dependent acquisition, peptides were analyzed on a Fusion Lumos (Thermo Scientific). […]

| Substance | HLA-DR expression [1] | HLA-DR expression [2] | STAT1/p-STAT1 protein expression [3] |
| --- | --- | --- | --- |
| IFN-γ: interferon gamma used to stimulate MCC cell lines | upregulated |  |  |
| IFN-y: type II interferon, recombinant human, used to treat MCC cells |  | inducible HLA-DR expression | lack of IFN-induced STAT1/p-STAT1 protein expression |
